The values that follow come from publication PMC10813298, “Evidence of Guanidines Potential against Leishmania (Viannia) braziliensis: Exploring In Vitro Effectiveness, Toxicities and of Innate Immunity Response Effects” (Biomolecules, 2023).

Each structure is given as a SMILES string. pEC50: −log10 of the molar value.

For data set [1], the system named is IL-12. Nature of the data set: Cytokine production in supernatant of infected macrophages (ELISA), IL-12. In kind it is cell-based, murine. The note with it: supernatant of RAW 264.7 macrophages infected with L. (V.) braziliensis. From the text:
To assess the production of cytokines TNF-α and IL-12 (associated with Th1 response), as well as IL-10 and IL-6 (associated with Th2 response), in the supernatants of the macrophage infection assay, the sandwich enzyme-linked immunosorbent assay (ELISA) method was employed, following the manufacturer’s instructions (eBioscience^TM, San Diego, CA, USA). Initially, capture antibodies specific to TNF-α, IL-6, IL-10, and IL-12 were sensitized in ELISA plates (NUNC-ImmunoTM, Sigma-Aldrich, St. Louis, MO, USA). The plates were incubated at 4 °C for 18 h. After the incubation period, all wells were washed with a solution containing 0.05% PBS and Tween 20 (Sigma-Aldrich, St. Louis, MO, USA). A blocking solution containing 10% FBS in PBS was added to the wells and incubated for 1 h. Subsequently, the wells were washed again. The supernatant obtained from the macrophage infection assay was added to the respective wells. Known concentrations of recombinant cytokines (TNF-α, IL-10, IL-6, and IL-12) were also added to the plate in parallel, covering a range from high to low concentrations. The plates were maintained at 4 °C for another 18 h. […] The absorbance was measured in a plate reader at a wavelength of 450 nm. The concentration of cytokines (TNF-α, IL-10, IL-6, and IL-12) in the supernatants was determined by interpolation from the standard curve.

The test system of data set [2] is Leishmania (Leishmania) amazonensis. Further details: method as in PMID 36551331. The note with it: BALB/c-L. (L.) amazonensis, 0.13 mg/kg/day; cited from earlier work.
Data set [3] relates to aorta. Kind of data set: Vasodilator effect on aortic rings (KCl contraction). The note with it: Cavia porcellus; guinea pig aortic rings. The protocol:
(§1) Guinea pigs of either sex weighing between 250 or 380 g were utilized in this study. The animals were housed in a controlled environment in an air-conditioned room, maintaining a temperature of 22 to 24 °C and a relative humidity of 50% to 60%. A 12 h light–dark cycle was maintained.
(§2) On the day of the experiments, the animals were euthanized via cervical dislocation. The heart, aorta, pulmonary artery, and ileum were surgically removed and immersed in Krebs–Henseleit solution, with the following composition: NaCl 144.9 mM, KCl 4.73 mM, CaCl2 3.2 mM, MgSO4 1.18 mM, NaHCO3 24.9 mM, KH2PO4 1.18 mM, and glucose 10 mM, with the pH maintained at 7.2–7.4. This solution was continuously aerated with a mixture of 95% O2 and 5% CO2.
Papillary muscles were isolated from the right ventricle of the heart and meticulously cleared of Purkinje fibers to prevent spontaneous activity. To ensure adequate oxygen supply, only muscles with a diameter less than 0.87 mm were used. The right atrium was also dissected for assessment of chronotropic activity. […]
(§3) Following a 30 min control period, different concentrations of test compounds were cumulatively added to the bath solution every 45 min until a stable effect was achieved. The responses were recorded using a chart recorder (BD 112 Dual Channel, Kipp &Zonen, PO Box 507, 2624 BC, Delft, Holland) for subsequent evaluation. […]

Data set [4] concerns pulmonary artery. Kind of data set: Vasodilator effect on pulmonary artery rings (KCl contraction). The note with it: guinea pig pulmonary artery rings. The protocol:
as §1, §2
Papillary muscles were isolated from the right ventricle of the heart and meticulously cleared of Purkinje fibers to prevent spontaneous activity. To ensure adequate oxygen supply, only muscles with a diameter less than 0.87 mm were used. The right atrium was also dissected for assessment of chronotropic activity. Both the aorta and pulmonary artery were cleaned and cut into 5 mm rings, while the ileum was sectioned into pieces measuring 1 to 2 cm.
One end of the dissected tissues was securely tied with silver wire for attachment to a tissue holder, while the other end was connected to a force transducer (Transbridge™, 4-Channel Transducer Amplifier, World Precision Instruments, Sarasota, FL, USA). For contractile measurements, the terminal ileum was stimulated with 60 mM KCl, and the pulmonary artery and aorta rings were exposed to a 90 mM KCl solution. […]
as §3

Data set [5] concerns LmCPB2.8ΔCTE. Further details: method as in PMID 36551331. The settings on record: previous findings; cited from earlier work.

For the compound `O=C(/N=C(/NCc1ccccc1)Nc1ccc([N+](=O)[O-])cc1)c1ccccc1` [LQOF-G1, (Z)-N-benzoyl-N-benzyl-N-(4-nitrophenyl)guanidine], the IL-12 level result in data set [1] is given as “increased”.

In general, pEC50 refers to the negative decadic logarithm of the EC50, by convention in mol/L. Read a low pEC50 as a high EC50. With `O=C(/N=C(/NCc1ccccc1)Nc1ccc(Br)cc1)c1ccccc1` [LQOF-G2, (Z)-N-benzoyl-N-benzyl-N-(4-bromophenyl)guanidine], the “reduction in the parasite load” value in data set [2] is 46%. The pEC50 in data set [3] was 4.80; in data set [4] (Cavia porcellus), 4.32. The “arteria pulmonalis ring contraction force” value in data set [4] is “decrease”.

For `CC(C)(C)c1ccc(N/C(=N\C(=O)c2ccccc2)NCc2ccccc2)cc1` [LQOF-G6, (Z)-N-benzoyl-N-benzyl-N-(4-tert-butylphenyl)guanidine], in data set [5], the “inhibition of the enzyme LmCPB2.8ΔCTE” value was 73%.
